Experimental data from US12180158B1, “Crystalline fumarate salts of n-ethyl-2-(5-fluoro-1H-indol-3-yl)-n-methylethan-1-amine” (Gilgamesh Pharmaceuticals, Inc., priority 2023, dated 2024).

What was measured:
[1] = Exposure of dry cake to humidity, solid form checked by XRPD; assay type: physicochemical; details: for XRPD pattern, dry cake exposed to humidity: monofumarate solids exposed to humidity (90% RH/30° C.), monofumarate
Protocol: The two different polymorphic forms of N-ethyl-2-(5-fluoro-1H-indol-3-yl)-N-methylethan-1-amine monofumarate were discovered by reactive crystallization from various solvents. These crystallization experiments were performed by subjecting the in-situ created salt, made by evaporating an ethanol solution of free base and fumaric acid, to vigorous agitation in 10 volumes of the selected solvent. The agitated mixtures were heated to 45-50° C. and cooled to room temperature as necessary to induce crystallization. Form 1 was the predominant form from acetone, and the mixed ethanol/MTBE solvent system, whereas, Form 2 was produced from IPA solvent (see Table 7 below).
The polymorphic Form 1 of N-ethyl-2-(5-fluoro-1H-indol-3-yl)-N-methylethan-1-amine hemifumarate was discovered by reactive crystallization from various solvents. These crystallization experiments were performed by subjecting the in-situ created salt, made by evaporating an ethanol solution of free base and 0.55 equivalents of fumaric acid, to vigorous agitation in 10 volumes of the selected solvent. The agitated mixtures were heated to 45-50° C. and cooled to room temperature as necessary to induce crystallization. Only one form was observed from the brief crystallization screening study, as depicted in Table 10 below.

[2] = Dynamic Vapor Sorption (DVS) isotherm; assay type: physicochemical; details: 25° C., FIG. 19
Protocol: Dynamic Vapor Sorption (DVS) was performed using a Q5000SA. The sample (5-15 mg) was loaded into a metallic quartz sample pan, suspended from a microbalance, and exposed to a humidified stream of nitrogen gas. Weight changes were relative to a matching empty reference pan opposite the sample, suspended from the microbalance. The sample was held for a minimum of 10 min at each level and only progressed to the next humidity level if there was <0.002% change in weight between measurements (interval: 5 s) or 45 min had elapsed (for 5-65% RH) or 2 h had elapsed (for 80 and 95% RH). The following programs were used: • 1—Equilibration at 50% RH • 2—50% to 5%. (50%, 35%, 20%, and 5%) • 3—5% to 95% (5%, 20%, 35%, 50%, 65%, 80%, and 95%) • 4—95% to 5% (95%, 80%, 65%, 50%, 35%, 20%, and 5%) • 5—5% to 50% (5%, 20%, 35%, and 50%) • 1—Equilibration at 50% RH • 2—50% to 2%. (50%, 40%, 30%, 20%, 10%, and 2%) • 3—2% to 75% (2%, 10%, 20%, 30%, 40%, 50%, 60%, 70% and 75%) • 4—75% to 2% (75%, 70%, 60%, 50%, 40%, 30%, 20%, 10% and 2%) • 5—2% to 50% (2%, 10%, 20%, 30%, 40% and 50%) • 1—Equilibration at 50% RH • 2—50% to 2%. (50%, 40%, 30%, 20%, 10%, and 2%) • 3—2% to 65% (2%, 10%, 20%, 30%, 40%, 50%, 60% and 65%) • 4—65% to 2% (65%, 60%, 50%, 40%, 30%, 20%, 10% and 2%) • 5—2% to 50% (2%, 10%, 20%, 30%, 40% and 50%). […]

**Q.** For `CCN(C)CCc1c[nH]c2ccc(F)cc12.O=C(O)/C=C/C(=O)O` [monofumarate Form 2, N-ethyl-2-(5-fluoro-1H-indol-3-yl)-N-methylethan-1-amine monofumarate], which “XRPD pattern, dry cake exposed to humidity” value [1] is on record?
**A.** slowly converted to Form 1

**Q.** With `CCN(C)CCc1c[nH]c2ccc(F)cc12.O=C(O)/C=C/C(=O)O` [monofumarate Form 1, N-ethyl-2-(5-fluoro-1H-indol-3-yl)-N-methylethan-1-amine monofumarate] as the compound, how does the “XRPD pattern, dry cake exposed to humidity” value [1] read?
**A.** Form 1

**Q.** For `CCN(C)CCc1c[nH]c2ccc(F)cc12.Cl` [hydrochloride Form 1, N-ethyl-2-(5-fluoro-1H-indol-3-yl)-N-methylethan-1-amine hydrochloride], which “DVS isotherm behaviour (moisture sorption equilibrium)” value [2] is on record?
**A.** did not reach equilibrium at 75% RH

**Q.** With “N-ethyl-2-(5-fluoro-1H-indol-3-yl)-N-methylethan-1-amine hemifumarate [hemifumarate Form 1]” as the compound, how does the “XRPD pattern, Humid” value ([1]; hemi-fumarate dry solid from EtOH:MTBE (1:1 vol.), exposed to humidity) read?
**A.** deliquescent
